# Assays:
# Experiment in all cases: Kinase Profiling (KINOMEscan)
# Type in all cases: binding
# [1] = target: 456 kinases (of these 395 non-mutant kinases) (Homo sapiens, UniProt O00238); settings: BMPR1B; 10 μM
# [2] = target: 456 kinases (of these 395 non-mutant kinases) (Homo sapiens, UniProt O14733); settings: MKK7; 10 μM
# [3] = target: 456 kinases (of these 395 non-mutant kinases) (Homo sapiens, UniProt O94806); settings: PRKD3; 10 μM
# [4] = target: 456 kinases (of these 395 non-mutant kinases) (Homo sapiens, UniProt O95747); settings: OSR1; 10 μM
# 456 kinases (of these 395 non-mutant kinases) (Homo sapiens, UniProt O95747), sequence (O95747 2-527 limits assumed, change not shown): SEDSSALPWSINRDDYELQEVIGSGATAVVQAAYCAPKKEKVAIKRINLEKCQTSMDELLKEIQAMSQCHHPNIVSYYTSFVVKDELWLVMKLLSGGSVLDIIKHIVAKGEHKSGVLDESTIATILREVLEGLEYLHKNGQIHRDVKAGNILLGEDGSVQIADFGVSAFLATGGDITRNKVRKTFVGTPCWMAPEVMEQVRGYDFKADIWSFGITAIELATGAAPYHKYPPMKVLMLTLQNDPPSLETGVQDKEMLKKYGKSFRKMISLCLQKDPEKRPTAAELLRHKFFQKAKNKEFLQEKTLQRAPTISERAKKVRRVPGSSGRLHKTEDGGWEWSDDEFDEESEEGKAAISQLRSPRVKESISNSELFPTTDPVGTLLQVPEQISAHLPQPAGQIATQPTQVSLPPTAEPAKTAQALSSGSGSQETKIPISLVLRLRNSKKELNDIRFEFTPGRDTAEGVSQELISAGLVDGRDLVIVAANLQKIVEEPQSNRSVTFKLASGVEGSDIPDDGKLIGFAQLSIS
# [5] = target: 456 kinases (of these 395 non-mutant kinases) (Homo sapiens, UniProt O96017); settings: CHEK2; 10 μM
# [6] = target: 456 kinases (of these 395 non-mutant kinases) (Homo sapiens, UniProt P09769); settings: FGR; 10 μM
# [7] = target: 456 kinases (of these 395 non-mutant kinases) (Homo sapiens, UniProt P0C1S8); settings: WEE2; 10 μM
# [8] = target: 456 kinases (of these 395 non-mutant kinases) (Homo sapiens, UniProt P10721, L576P); settings: KIT(L576P); 10 μM
# [9] = target: 456 kinases (of these 395 non-mutant kinases) (Homo sapiens, UniProt P10721, T670I/V559D); settings: KIT(V559D,T670I); 10 μM
# 456 kinases (of these 395 non-mutant kinases) (Homo sapiens, UniProt P10721, T670I/V559D), sequence (P10721 26-976 V559D/T670I limits assumed): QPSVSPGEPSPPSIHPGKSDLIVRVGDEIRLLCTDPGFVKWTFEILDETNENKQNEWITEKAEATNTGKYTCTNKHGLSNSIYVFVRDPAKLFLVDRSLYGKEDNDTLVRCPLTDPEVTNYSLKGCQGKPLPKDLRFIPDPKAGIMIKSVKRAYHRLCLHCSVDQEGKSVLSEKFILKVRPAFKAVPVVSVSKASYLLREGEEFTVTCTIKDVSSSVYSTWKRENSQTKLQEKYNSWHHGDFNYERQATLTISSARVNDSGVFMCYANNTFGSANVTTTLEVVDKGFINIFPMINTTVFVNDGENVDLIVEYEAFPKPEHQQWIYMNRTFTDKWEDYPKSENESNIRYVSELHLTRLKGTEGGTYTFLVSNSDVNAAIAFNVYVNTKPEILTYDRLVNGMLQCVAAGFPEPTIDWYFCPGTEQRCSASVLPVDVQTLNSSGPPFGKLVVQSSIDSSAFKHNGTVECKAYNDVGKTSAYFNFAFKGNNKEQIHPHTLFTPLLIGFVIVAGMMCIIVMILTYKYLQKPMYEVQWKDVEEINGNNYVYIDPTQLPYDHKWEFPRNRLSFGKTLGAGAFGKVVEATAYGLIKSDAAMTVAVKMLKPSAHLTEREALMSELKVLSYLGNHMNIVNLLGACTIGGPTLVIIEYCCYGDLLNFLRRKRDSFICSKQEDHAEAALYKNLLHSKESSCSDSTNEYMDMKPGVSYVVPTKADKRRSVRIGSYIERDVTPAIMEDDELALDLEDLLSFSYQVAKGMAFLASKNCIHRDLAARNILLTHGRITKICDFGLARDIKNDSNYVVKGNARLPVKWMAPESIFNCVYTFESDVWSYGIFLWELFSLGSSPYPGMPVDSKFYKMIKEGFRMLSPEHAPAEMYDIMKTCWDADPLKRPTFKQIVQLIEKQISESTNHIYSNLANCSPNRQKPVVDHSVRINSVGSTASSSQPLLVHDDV
# [10] = target: 456 kinases (of these 395 non-mutant kinases) (Homo sapiens, UniProt P24941); settings: CDK2; 10 μM
# [11] = target: 456 kinases (of these 395 non-mutant kinases) (Homo sapiens, UniProt P37023); settings: ACVRL1; 10 μM
# [12] = target: 456 kinases (of these 395 non-mutant kinases) (Homo sapiens, UniProt P42336, E542K); settings: PIK3CA(E542K); 10 μM
# [13] = target: 456 kinases (of these 395 non-mutant kinases) (Homo sapiens, UniProt P49759); settings: CLK1; 10 μM
# [14] = target: 456 kinases (of these 395 non-mutant kinases) (Homo sapiens, UniProt P49760); settings: CLK2; 10 μM
# [15] = target: 456 kinases (of these 395 non-mutant kinases) (Homo sapiens, UniProt P50750); settings: CDK9; 10 μM
# [16] = target: 456 kinases (of these 395 non-mutant kinases) (Homo sapiens, UniProt P51617); settings: IRAKI; 10 μM
# [17] = target: 456 kinases (of these 395 non-mutant kinases) (Homo sapiens, UniProt P51956); settings: NEK3; 10 μM
# [18] = target: 456 kinases (of these 395 non-mutant kinases) (Homo sapiens, UniProt P54762); settings: EPHB1; 10 μM
# 456 kinases (of these 395 non-mutant kinases) (Homo sapiens, UniProt P54762), sequence (P54762 18-984 limits assumed, change not shown): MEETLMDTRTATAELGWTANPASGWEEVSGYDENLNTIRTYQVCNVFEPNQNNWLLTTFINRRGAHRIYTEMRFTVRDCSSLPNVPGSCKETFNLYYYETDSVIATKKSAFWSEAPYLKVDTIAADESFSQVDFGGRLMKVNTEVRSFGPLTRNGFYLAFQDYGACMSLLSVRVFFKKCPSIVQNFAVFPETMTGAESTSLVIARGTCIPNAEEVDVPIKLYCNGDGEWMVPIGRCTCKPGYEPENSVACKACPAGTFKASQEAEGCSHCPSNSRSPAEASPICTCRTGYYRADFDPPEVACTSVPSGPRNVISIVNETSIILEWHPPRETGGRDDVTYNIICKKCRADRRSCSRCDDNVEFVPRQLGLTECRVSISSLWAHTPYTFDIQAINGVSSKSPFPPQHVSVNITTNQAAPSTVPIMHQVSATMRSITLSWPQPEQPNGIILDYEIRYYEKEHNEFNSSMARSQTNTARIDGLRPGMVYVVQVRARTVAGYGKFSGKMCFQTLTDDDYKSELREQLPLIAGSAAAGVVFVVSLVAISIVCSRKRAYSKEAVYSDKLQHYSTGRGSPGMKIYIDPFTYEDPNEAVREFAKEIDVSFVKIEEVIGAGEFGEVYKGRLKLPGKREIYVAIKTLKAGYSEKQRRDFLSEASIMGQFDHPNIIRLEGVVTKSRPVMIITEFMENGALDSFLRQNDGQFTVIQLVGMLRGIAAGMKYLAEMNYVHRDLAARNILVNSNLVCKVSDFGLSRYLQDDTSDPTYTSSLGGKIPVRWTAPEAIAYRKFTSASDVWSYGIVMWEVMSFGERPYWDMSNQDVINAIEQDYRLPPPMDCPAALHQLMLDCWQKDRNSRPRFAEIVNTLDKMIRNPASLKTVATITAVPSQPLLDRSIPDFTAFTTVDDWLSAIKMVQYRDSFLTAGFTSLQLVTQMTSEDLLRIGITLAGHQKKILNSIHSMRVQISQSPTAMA
# [19] = target: 456 kinases (of these 395 non-mutant kinases) (Homo sapiens, UniProt Q00526); settings: CDK3; 10 μM
# [20] = target: 456 kinases (of these 395 non-mutant kinases) (Homo sapiens, UniProt Q13043); settings: MST1; 10 μM
# [21] = target: 456 kinases (of these 395 non-mutant kinases) (Homo sapiens, UniProt Q13557); settings: CAMK2D; 10 μM
# 456 kinases (of these 395 non-mutant kinases) (Homo sapiens, UniProt Q13557), sequence (Q13557 2-499 limits assumed, change not shown): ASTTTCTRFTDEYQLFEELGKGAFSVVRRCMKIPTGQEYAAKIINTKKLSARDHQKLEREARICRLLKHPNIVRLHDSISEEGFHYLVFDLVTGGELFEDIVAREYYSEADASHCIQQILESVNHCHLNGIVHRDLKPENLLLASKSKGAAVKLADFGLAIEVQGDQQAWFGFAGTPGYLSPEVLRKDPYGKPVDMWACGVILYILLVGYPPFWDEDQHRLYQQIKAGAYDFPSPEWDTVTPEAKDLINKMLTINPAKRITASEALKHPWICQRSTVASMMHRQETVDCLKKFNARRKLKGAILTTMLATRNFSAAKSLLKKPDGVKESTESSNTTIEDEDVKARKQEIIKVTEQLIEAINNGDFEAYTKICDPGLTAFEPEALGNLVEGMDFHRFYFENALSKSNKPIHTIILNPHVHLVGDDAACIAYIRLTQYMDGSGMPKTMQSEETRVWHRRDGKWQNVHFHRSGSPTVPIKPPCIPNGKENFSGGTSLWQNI
# [22] = target: 456 kinases (of these 395 non-mutant kinases) (Homo sapiens, UniProt Q14012); settings: CAMK1; 10 μM
# [23] = target: 456 kinases (of these 395 non-mutant kinases) (Homo sapiens, UniProt Q15375); settings: EPHA7; 10 μM
# [24] = target: 456 kinases (of these 395 non-mutant kinases) (Homo sapiens, UniProt Q15835); settings: GRK1; 10 μM
# [25] = target: 456 kinases (of these 395 non-mutant kinases) (Homo sapiens, UniProt Q16832); settings: DDR2; 10 μM
# 456 kinases (of these 395 non-mutant kinases) (Homo sapiens, UniProt Q16832), sequence (Q16832 22-855 limits assumed, change not shown): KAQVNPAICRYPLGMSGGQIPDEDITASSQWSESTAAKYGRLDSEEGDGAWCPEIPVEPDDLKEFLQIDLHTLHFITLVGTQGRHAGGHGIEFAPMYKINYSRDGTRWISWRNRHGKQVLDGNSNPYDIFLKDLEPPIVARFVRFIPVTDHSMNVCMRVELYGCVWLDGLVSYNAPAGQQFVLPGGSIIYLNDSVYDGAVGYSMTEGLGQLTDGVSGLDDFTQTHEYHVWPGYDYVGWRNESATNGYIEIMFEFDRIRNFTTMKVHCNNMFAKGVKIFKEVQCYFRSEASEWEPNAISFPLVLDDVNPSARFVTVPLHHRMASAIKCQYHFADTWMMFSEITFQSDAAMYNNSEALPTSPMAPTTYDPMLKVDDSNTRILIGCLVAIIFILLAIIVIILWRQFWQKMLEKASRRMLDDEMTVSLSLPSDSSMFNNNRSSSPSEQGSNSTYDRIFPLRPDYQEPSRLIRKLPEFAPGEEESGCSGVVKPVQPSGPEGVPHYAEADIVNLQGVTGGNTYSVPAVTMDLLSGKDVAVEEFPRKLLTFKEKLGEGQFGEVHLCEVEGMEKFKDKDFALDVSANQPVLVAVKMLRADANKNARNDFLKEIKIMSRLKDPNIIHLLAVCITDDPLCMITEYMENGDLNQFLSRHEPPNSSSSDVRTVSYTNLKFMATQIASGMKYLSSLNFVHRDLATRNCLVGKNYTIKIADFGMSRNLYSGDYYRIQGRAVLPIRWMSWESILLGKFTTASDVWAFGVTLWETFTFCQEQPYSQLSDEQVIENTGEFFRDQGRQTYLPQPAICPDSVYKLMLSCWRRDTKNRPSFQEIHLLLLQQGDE
# [26] = target: 456 kinases (of these 395 non-mutant kinases) (Homo sapiens, UniProt Q2M2I8); settings: AAK1; 10 μM
# [27] = target: 456 kinases (of these 395 non-mutant kinases) (Homo sapiens, UniProt Q6DT37); settings: DMPK2; 10 μM
# [28] = target: 456 kinases (of these 395 non-mutant kinases) (Homo sapiens, UniProt Q6PHR2); settings: ULK3; 10 μM
# [29] = target: 456 kinases (of these 395 non-mutant kinases) (Homo sapiens, UniProt Q8IVH8); settings: MAP4K3; 10 μM
# [30] = target: 456 kinases (of these 395 non-mutant kinases) (Homo sapiens, UniProt Q8TDR2); settings: STK35; 10 μM
# [31] = target: 456 kinases (of these 395 non-mutant kinases) (Homo sapiens, UniProt Q9H0K1); settings: SIK2; 10 μM
# [32] = target: 456 kinases (of these 395 non-mutant kinases) (Homo sapiens, UniProt Q9NYY3); settings: PLK2; 10 μM
# 456 kinases (of these 395 non-mutant kinases) (Homo sapiens, UniProt O14733), sequence (O14733 2-419 limits assumed, change not shown): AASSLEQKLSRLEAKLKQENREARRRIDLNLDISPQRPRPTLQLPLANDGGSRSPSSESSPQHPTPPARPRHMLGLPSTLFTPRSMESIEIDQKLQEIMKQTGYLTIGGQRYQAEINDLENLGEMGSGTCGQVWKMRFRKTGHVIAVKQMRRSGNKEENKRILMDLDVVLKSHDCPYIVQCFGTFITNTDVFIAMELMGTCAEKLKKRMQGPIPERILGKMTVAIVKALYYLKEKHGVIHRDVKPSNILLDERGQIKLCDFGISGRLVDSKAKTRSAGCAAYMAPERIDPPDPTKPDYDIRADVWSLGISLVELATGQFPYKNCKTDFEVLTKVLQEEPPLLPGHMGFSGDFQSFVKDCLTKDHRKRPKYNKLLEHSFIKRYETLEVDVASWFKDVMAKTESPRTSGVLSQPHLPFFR
# 456 kinases (of these 395 non-mutant kinases) (Homo sapiens, UniProt O00238), sequence (O00238 14-502 limits assumed, change not shown): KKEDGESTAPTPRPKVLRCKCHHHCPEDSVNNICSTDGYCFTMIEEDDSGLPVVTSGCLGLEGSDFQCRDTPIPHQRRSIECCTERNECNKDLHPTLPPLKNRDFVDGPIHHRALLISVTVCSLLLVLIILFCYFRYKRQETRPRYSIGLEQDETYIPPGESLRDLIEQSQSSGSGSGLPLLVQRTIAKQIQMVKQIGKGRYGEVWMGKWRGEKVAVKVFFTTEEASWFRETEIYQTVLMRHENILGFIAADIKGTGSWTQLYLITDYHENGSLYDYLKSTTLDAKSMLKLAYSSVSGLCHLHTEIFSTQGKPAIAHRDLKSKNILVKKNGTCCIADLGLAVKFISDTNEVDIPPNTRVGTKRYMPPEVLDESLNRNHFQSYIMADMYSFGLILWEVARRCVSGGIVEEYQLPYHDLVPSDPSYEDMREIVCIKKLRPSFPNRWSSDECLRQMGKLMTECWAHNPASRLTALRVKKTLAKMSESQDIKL
compound,measurement,setting,value
"CCc1ccccc1NC(=O)c1c(C)nsc1Nc1cnc2cc(F)ccc2n1 [Example 20, N-(2-Ethylphenyl)-5-[(6-fluoroquinoxalin-2-yl)amino]-3-methyl-1,2-thiazole-4-carboxamide]",% Ctrl @ 10 μM,[1],95 % Ctrl
same,% Ctrl @ 10 μM,[2],100 % Ctrl
same,% Ctrl @ 10 μM,[3],97 % Ctrl
same,% Ctrl @ 10 μM,[4],97 % Ctrl
same,% Ctrl @ 10 μM,[5],100 % Ctrl
same,% Ctrl @ 10 μM,[6],80 % Ctrl
same,% Ctrl @ 10 μM,[7],100 % Ctrl
same,% Ctrl @ 10 μM,[8],100 % Ctrl
same,% Ctrl @ 10 μM,[9],100 % Ctrl
same,% Ctrl @ 10 μM,[10],100 % Ctrl
same,% Ctrl @ 10 μM,[11],100 % Ctrl
same,% Ctrl @ 10 μM,[12],81 % Ctrl
same,% Ctrl @ 10 μM,[13],58 % Ctrl
same,% Ctrl @ 10 μM,[14],77 % Ctrl
same,% Ctrl @ 10 μM,[15],100 % Ctrl
same,% Ctrl @ 10 μM,[16],100 % Ctrl
same,% Ctrl @ 10 μM,[17],97 % Ctrl
same,% Ctrl @ 10 μM,[18],96 % Ctrl
same,% Ctrl @ 10 μM,[19],100 % Ctrl
same,% Ctrl @ 10 μM,[20],79 % Ctrl
same,% Ctrl @ 10 μM,[21],89 % Ctrl
same,% Ctrl @ 10 μM,[22],68 % Ctrl
same,% Ctrl @ 10 μM,[23],100 % Ctrl
same,% Ctrl @ 10 μM,[24],100 % Ctrl
same,% Ctrl @ 10 μM,[25],100 % Ctrl
same,% Ctrl @ 10 μM,[26],68 % Ctrl
same,% Ctrl @ 10 μM,[27],79 % Ctrl
same,% Ctrl @ 10 μM,[28],100 % Ctrl
same,% Ctrl @ 10 μM,[29],83 % Ctrl
same,% Ctrl @ 10 μM,[30],84 % Ctrl
same,% Ctrl @ 10 μM,[31],84 % Ctrl
same,% Ctrl @ 10 μM,[32],90 % Ctrl
